# Source: the OligoGym collection
# These antisense oligonucleotides have a phosphorothioate backbone; sugars and methylation of C are not fully specified.
# What was measured:
# Conditions in all cases: ASO
# PLA2G4A = target: PLA2G4A
# REL = target: REL
# EGR1 = target: EGR1
# SUMO1 = target: SUMO1
# Note: test concentration or dose not given here.
sequence,measurement,setting,value
CCCCACCTGAACCCAATA,remaining target (mRNA or protein) (fraction of control),PLA2G4A,≥ 1
ACACGACAAATCCTTAAT,remaining target (mRNA or protein) (fraction of control),REL,≥ 1
GAATGGTGGGATACCTTG,remaining target (mRNA or protein) (fraction of control),REL,0.43
CGAGACAACAGGAGGAAG,remaining target (mRNA or protein) (fraction of control),REL,0.8
GGGCCTGGCCGGGTTACA,remaining target (mRNA or protein) (fraction of control),EGR1,0.4
AAGTCGGGAGCCATAAAA,remaining target (mRNA or protein) (fraction of control),PLA2G4A,0.87
AGCCCACTGTCCACTACA,remaining target (mRNA or protein) (fraction of control),PLA2G4A,0.2
ATTTGTATCTAAAACGCA,remaining target (mRNA or protein) (fraction of control),REL,≥ 1
ATGCCTTTTGCTTCCCAA,remaining target (mRNA or protein) (fraction of control),REL,0.14
ATAAGTCGGGAGCCATAA,remaining target (mRNA or protein) (fraction of control),PLA2G4A,0.98
ACTCGATTTTCTAGCATT,remaining target (mRNA or protein) (fraction of control),EGR1,≥ 1
GTATTGCCTGAGCGTGGG,remaining target (mRNA or protein) (fraction of control),REL,0.57
CAGCAGCATCATCTCCTC,remaining target (mRNA or protein) (fraction of control),EGR1,≥ 1
TGATCCACCCGCCTTGGC,remaining target (mRNA or protein) (fraction of control),REL,≥ 1
CTCCTCCTTCTTCCCGCC,remaining target (mRNA or protein) (fraction of control),REL,0.78
TTTAGCCCACTTTTCTGC,remaining target (mRNA or protein) (fraction of control),PLA2G4A,0.07
TTTCTACGTGATCCTGGC,remaining target (mRNA or protein) (fraction of control),REL,0.85
GGTAGGAAGAGAGAGAGG,remaining target (mRNA or protein) (fraction of control),EGR1,≥ 1
GTCTCAAGTCTCTTGGGT,remaining target (mRNA or protein) (fraction of control),REL,0.41
GTTCATTTTAGCCCACTT,remaining target (mRNA or protein) (fraction of control),PLA2G4A,≥ 1
TCTGCTTTCTTGTCCTTC,remaining target (mRNA or protein) (fraction of control),EGR1,≥ 1
TCCCAAAGTGCTAGGATT,remaining target (mRNA or protein) (fraction of control),REL,0.7
CTCACTAGGCCACTGACC,remaining target (mRNA or protein) (fraction of control),EGR1,≥ 1
GATGTCAGGAAAAGACTC,remaining target (mRNA or protein) (fraction of control),EGR1,≥ 1
CAAAAGGCACCAAGACGT,remaining target (mRNA or protein) (fraction of control),EGR1,≥ 1
CCTGCGGCGGCGGAAGCT,remaining target (mRNA or protein) (fraction of control),EGR1,≥ 1
ACTGACTATCTTGAACAA,remaining target (mRNA or protein) (fraction of control),REL,≥ 1
TCTCCTCCTCCTGTCCTT,remaining target (mRNA or protein) (fraction of control),EGR1,≥ 1
TGCTGACCTGGGCCGGGA,remaining target (mRNA or protein) (fraction of control),EGR1,≥ 1
TGAGATTCAAGCCCAGCA,remaining target (mRNA or protein) (fraction of control),PLA2G4A,0.41
CACAGTCTCACCACATTG,remaining target (mRNA or protein) (fraction of control),REL,0.39
ATAATGAATAATGAGCAC,remaining target (mRNA or protein) (fraction of control),SUMO1,≥ 1
AAATCCTTCCCCTTCCCG,remaining target (mRNA or protein) (fraction of control),SUMO1,≥ 1
TCATCGGCATTGTTGTAA,remaining target (mRNA or protein) (fraction of control),REL,0.54
CGGTTGTTGTCTGTGCTG,remaining target (mRNA or protein) (fraction of control),REL,0.38
CAGAAACGCCCAAAACTC,remaining target (mRNA or protein) (fraction of control),PLA2G4A,0.43
CACTAACTTCCTGGTCAG,remaining target (mRNA or protein) (fraction of control),REL,0.48
ACATGATGACGGTGGCTT,remaining target (mRNA or protein) (fraction of control),SUMO1,≥ 1
GGGCGAGTGAGGAAAGGA,remaining target (mRNA or protein) (fraction of control),EGR1,0.63
GCAGTAACTTCCGCTACG,remaining target (mRNA or protein) (fraction of control),SUMO1,≥ 1
TGCTGTCGTTGGATGGCA,remaining target (mRNA or protein) (fraction of control),EGR1,≥ 1
TCTCTCACAACTGCATCA,remaining target (mRNA or protein) (fraction of control),REL,0.58
TCTTTCTGAACTTTGTCA,remaining target (mRNA or protein) (fraction of control),REL,0.98
AATCCACTTGAGATGGGC,remaining target (mRNA or protein) (fraction of control),REL,0.74
TGAGCCCACTGTCCACTA,remaining target (mRNA or protein) (fraction of control),PLA2G4A,0.26
CTTGTTCATTTTAGCCCA,remaining target (mRNA or protein) (fraction of control),PLA2G4A,≥ 1
GGTCCTGGGAGCCCGACT,remaining target (mRNA or protein) (fraction of control),EGR1,≥ 1
ACTAATGTAATTCTCACT,remaining target (mRNA or protein) (fraction of control),REL,≥ 1
ACTTCCATCTCCCACTGA,remaining target (mRNA or protein) (fraction of control),SUMO1,0.47
CACAATTCTTGTTTACAC,remaining target (mRNA or protein) (fraction of control),REL,0.84
ACCAGAAACGCCCAAAAC,remaining target (mRNA or protein) (fraction of control),PLA2G4A,0.21
AACTTCCGCTACGCCTCG,remaining target (mRNA or protein) (fraction of control),SUMO1,≥ 1
AAACAGTAGTATTGGAAT,remaining target (mRNA or protein) (fraction of control),REL,≥ 1
TCACCTTATCTGTCATCT,remaining target (mRNA or protein) (fraction of control),SUMO1,≥ 1
TAATACAATAGAATATGC,remaining target (mRNA or protein) (fraction of control),EGR1,≥ 1
GTCTGCGTTCTTGTCCAA,remaining target (mRNA or protein) (fraction of control),REL,≥ 1
CTCGCCCGTGTCCGCCTG,remaining target (mRNA or protein) (fraction of control),EGR1,≥ 1
CCTCAAAGAGAAACCTGA,remaining target (mRNA or protein) (fraction of control),SUMO1,≥ 1
AATGGATTGATTCCTGCC,remaining target (mRNA or protein) (fraction of control),REL,≥ 1
TTCTTTGAGTTTCTTGAG,remaining target (mRNA or protein) (fraction of control),SUMO1,≥ 1
GTCTTTGACAGTATGATT,remaining target (mRNA or protein) (fraction of control),SUMO1,≥ 1
TTCCTCCATTCCCAGTTC,remaining target (mRNA or protein) (fraction of control),SUMO1,≥ 1
GAGGTTTATATGGGTCAT,remaining target (mRNA or protein) (fraction of control),REL,≥ 1
AGATGTGTTGTCATTTTC,remaining target (mRNA or protein) (fraction of control),SUMO1,≥ 1
ATGTGAGCCCACTGTCCA,remaining target (mRNA or protein) (fraction of control),PLA2G4A,≥ 1
AAAGAGGTAAAGGGCATT,remaining target (mRNA or protein) (fraction of control),PLA2G4A,≥ 1
ATGCTGCCTGCTGATCGC,remaining target (mRNA or protein) (fraction of control),REL,0.41
GGCACTTCAGTAACTTTC,remaining target (mRNA or protein) (fraction of control),SUMO1,0.79
CTGTCCAATGACTTTGAG,remaining target (mRNA or protein) (fraction of control),SUMO1,≥ 1
TCGGGAGCCATAAAAGTA,remaining target (mRNA or protein) (fraction of control),PLA2G4A,≥ 1
